Experimental findings from US20200239530A1, “COMPOUNDS AND METHODS OF MODULATING PROTEIN DEGRADATION” (Vividion Therapeutics, Inc., priority 2017, published 2020) are described below.

Holding throughout (assay): Cysteine liganding, probe competition
Assay type in all cases: binding

Test [1] deals with T1, KBTBD8 Kelch repeat and BTB domain-containing protein 8 (Homo sapiens, UniProt Q8NFY9).
T1 construct: Cells were resuspended in cold PBS on ice and sonicated with a probe sonicator to achieve lysis; endogenous in cells
T1 sequence (Q8NFY9 1-601): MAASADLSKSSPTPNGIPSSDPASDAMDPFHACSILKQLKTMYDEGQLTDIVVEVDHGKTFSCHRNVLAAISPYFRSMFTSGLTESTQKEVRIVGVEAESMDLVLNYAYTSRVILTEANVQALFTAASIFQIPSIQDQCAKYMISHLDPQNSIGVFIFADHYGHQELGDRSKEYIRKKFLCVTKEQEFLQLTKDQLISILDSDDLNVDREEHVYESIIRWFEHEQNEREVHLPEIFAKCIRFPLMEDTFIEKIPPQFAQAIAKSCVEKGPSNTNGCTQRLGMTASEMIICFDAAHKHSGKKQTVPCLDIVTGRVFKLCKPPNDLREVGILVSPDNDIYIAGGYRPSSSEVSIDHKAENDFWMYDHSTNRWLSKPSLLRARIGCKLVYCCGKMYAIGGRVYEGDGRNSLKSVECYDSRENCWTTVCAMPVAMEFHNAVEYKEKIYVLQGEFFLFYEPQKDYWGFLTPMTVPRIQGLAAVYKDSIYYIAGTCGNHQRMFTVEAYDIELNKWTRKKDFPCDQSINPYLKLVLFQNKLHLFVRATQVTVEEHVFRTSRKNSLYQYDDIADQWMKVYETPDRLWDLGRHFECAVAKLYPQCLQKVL
The conditions noted are these: for 100 Max / 100 ave / 500 Max / 500 ave: uniprot Q8NFY9. In outline: (§1)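 Lysates from probe-sonicated cells in PBS (5 mg/ml proteome) were exposed to compound for 1 hr at 25° C, then labelled with desthiobiotin iodoacetamide probe (10 mM stock) for 1 hr at 25° C. Probe-tagged peptides were streptavidin-enriched after trypsin digestion.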

Test [2] deals with T2, DDX50 ATP-dependent RNA helicase DDX50 (Homo sapiens, UniProt Q9BQ39).
T2 construct: 200 μL of lysate containing 5 mg/ml proteome was treated with 2 μL of 100× compound stock; endogenous in cells
T2 sequence (Q9BQ39 1-737): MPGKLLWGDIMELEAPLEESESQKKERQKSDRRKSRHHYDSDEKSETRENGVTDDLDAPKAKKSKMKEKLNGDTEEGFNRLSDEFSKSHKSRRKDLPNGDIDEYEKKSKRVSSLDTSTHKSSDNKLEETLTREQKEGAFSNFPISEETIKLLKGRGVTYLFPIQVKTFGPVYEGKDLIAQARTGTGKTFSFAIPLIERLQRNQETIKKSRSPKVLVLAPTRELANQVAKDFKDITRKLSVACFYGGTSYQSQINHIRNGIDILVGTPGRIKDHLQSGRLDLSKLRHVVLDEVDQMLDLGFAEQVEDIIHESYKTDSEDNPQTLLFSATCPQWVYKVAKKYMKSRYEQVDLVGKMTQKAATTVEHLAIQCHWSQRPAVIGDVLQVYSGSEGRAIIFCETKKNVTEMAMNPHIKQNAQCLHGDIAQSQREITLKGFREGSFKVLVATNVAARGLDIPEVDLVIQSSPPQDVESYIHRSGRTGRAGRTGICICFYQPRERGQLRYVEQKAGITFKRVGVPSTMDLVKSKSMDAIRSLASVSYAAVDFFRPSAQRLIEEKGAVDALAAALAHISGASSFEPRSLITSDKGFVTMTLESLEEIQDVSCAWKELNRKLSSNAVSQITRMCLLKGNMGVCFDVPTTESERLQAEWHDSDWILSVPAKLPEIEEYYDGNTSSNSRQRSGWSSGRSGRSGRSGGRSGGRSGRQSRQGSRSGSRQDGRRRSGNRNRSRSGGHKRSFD
An outline of the steps:
as §1

The next test deals with T3, SQSTM1 Sequestosome-1 (Homo sapiens, UniProt Q13501).
T3 construct: Cells were resuspended in cold PBS on ice and sonicated with a probe sonicator to achieve lysis; endogenous in cells
In outline: as §1

T3 sequence (Q13501 whole entry): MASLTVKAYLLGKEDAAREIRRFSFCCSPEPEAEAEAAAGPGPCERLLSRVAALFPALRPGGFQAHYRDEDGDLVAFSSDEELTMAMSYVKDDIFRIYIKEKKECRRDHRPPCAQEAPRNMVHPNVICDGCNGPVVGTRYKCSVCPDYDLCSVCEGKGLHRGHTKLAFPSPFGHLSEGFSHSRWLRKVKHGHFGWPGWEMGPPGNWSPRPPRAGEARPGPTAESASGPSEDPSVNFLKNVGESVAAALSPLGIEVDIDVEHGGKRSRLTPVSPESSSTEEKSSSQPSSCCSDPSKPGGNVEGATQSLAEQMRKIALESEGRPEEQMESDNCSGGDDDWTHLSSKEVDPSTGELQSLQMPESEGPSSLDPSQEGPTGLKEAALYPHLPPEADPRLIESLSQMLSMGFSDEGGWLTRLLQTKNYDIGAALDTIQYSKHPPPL

For the compound `O=C(CCl)Nc1cc(C(F)(F)F)cc(C(F)(F)F)c1` [KBO3], in test [1], the “100 Max” value is listed as 5.3, the 100 ave is reported as −7.4, the “500 Max” value stood at 21.5 and the 500 ave came to 21.5. Further, in test [2] (uniprot Q9BQ39), the “100 Max” value is recorded as −9.62, the 100 ave is reported as −13.925, the “500 Max” value stood at 28.63 and the 500 ave is reported as 22.82. On SQSTM1 Sequestosome-1 (uniprot Q13501), the “100 Max” value worked out at 11.89, the 100 ave is −14.15, the “500 Max” value stood at 56.86 and the 500 ave is recorded as 54.29.

Take `COc1ccc2c(c1)CCCN2C(=O)CCl` [KB02]: the Liganded result in test [1] (KBTBD8 Res# 181, uniprot Q8NFY9) was “YES”. Further, in test [1], the “100 Max” value was 38.4, the 100 ave came out at 36.7, the “500 Max” value was 79.2 and the 500 ave is given as 79.2. The Liganded entry in test [2] (DDX50 Res# 603, uniprot Q9BQ39) is reported as “YES”. In addition, the Liganded result on SQSTM1 Sequestosome-1 (SQSTM1 Res# 131, uniprot Q13501) was “YES”.
